# Laboratory results taken from ChEMBL document CHEMBL4382281, “ASK1: A Therapeutic Target for the Treatment of Multiple Diseases” (ACS Med Chem Lett, 2019).
# Experiments:
# [1] = molecular target: T1, Mitogen-activated protein kinase kinase kinase 5 (Homo sapiens, UniProt Q99683); assay: Inhibition of human ASK1 using MBP as substrate measured in presence of [gamma-33P]-ATP
# T1 sequence (Q99683 whole entry): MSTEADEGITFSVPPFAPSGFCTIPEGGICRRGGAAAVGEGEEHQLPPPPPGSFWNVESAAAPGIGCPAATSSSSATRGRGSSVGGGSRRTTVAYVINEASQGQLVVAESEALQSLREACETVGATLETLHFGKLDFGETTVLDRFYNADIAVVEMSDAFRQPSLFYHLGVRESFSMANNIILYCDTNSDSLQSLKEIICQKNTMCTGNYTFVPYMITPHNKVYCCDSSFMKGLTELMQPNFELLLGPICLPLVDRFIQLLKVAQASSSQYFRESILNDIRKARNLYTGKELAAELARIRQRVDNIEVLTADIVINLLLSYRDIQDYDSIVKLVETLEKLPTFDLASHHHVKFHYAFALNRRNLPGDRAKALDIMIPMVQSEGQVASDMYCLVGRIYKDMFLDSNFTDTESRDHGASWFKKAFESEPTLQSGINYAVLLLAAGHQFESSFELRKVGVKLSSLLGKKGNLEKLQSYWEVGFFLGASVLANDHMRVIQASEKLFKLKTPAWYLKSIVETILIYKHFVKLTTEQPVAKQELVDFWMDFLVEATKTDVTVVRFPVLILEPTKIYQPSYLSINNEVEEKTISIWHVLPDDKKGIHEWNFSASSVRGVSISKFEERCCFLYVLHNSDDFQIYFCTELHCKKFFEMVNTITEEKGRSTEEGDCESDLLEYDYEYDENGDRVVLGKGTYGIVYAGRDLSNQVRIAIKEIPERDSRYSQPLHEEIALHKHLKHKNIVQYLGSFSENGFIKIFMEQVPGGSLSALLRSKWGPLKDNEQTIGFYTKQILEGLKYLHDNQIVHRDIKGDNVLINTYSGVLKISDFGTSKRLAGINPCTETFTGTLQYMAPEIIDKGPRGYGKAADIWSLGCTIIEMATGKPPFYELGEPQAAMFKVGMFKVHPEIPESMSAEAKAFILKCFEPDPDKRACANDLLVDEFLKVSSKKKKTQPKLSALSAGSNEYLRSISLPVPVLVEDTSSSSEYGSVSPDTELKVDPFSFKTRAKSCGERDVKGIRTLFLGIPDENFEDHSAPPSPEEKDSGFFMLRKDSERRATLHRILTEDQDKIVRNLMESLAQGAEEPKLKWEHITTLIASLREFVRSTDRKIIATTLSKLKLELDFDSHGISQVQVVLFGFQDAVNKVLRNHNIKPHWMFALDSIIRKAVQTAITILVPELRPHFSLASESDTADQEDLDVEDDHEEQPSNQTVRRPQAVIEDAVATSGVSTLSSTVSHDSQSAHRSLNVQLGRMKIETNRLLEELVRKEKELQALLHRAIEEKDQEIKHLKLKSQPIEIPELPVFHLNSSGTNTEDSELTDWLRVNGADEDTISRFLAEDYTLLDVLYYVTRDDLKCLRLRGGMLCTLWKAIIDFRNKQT
# [2] = molecular target: T1, Mitogen-activated protein kinase kinase kinase 5; assay: Inhibition of recombinant V5-tagged ASK1 (unknown origin) expressed in HEK293 cells assessed as reduction in ASK1 autophosphorylation at T838 residue after 1 hr by MSD assay; format: cell-based
# [3] = molecular target: T1, Mitogen-activated protein kinase kinase kinase 5; assay: Inhibition of full-length human GST-tagged ASK1 expressed in baculovirus expression system using biotinylated STK Substrate 3 preincubated for 10 mins followed by ATP addition and measured after 5 hrs by TR-FRET assay
SMILES,IC50 [1] [nM],IC50 [2] [nM],IC50 [3] [nM]
Cc1ccc2c(c1)C(=O)Nc1cccc(n1)-c1nncn1CCCCO2,≤ 100,≤ 1000,≤ 100
O=C1Nc2cccc(n2)-c2nncn2C/C=C/COc2c(Br)cccc21,–,> 10000,100 to 1000
Cc1ncn(-c2ccc3c(c2)C(=O)Nc2cccc(n2)-c2nncn2CCCCO3)c1C,≤ 100,≤ 1000,≤ 100
